# Values joined by “and” are separate entries in the source; they are usually repeats but may differ in a detail not shown here. Equal entries are not always repeated.
# Legend:
# [1] = target: T1, hTREK1 (Homo sapiens, UniProt O95069); assay: Manual whole-cell patch clamp, HEK293 cells stably expressing TREK1; type: cell-based; set-up: expressed in transfected cells
# T1 sequence (O95069 1-426): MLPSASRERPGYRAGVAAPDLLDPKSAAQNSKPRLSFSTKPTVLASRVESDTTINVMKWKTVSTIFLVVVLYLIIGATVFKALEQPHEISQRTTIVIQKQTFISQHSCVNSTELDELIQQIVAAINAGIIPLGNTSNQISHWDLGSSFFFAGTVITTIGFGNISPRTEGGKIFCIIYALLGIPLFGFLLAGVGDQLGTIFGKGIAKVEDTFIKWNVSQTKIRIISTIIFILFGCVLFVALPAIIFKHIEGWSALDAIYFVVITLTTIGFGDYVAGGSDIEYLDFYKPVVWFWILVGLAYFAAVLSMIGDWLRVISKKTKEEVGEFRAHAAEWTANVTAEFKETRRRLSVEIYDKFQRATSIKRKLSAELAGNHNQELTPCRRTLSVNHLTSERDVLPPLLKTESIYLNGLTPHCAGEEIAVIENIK
# Protocol: Electrophysiological studies were performed on CHO or HEK293 cells, stably expressing human recombinant TREK1; tsA‐201 cells transiently transfected with human recombinant K2P channels and acutely dissociated rat DRG cells, all at room temperature (22–24°C).
# Studies were performed using a conventional patch clamp and Multiclamp 700B and pCLAMP software (Molecular Devices, Sunnyvale, CA, USA). For conventional manual patch clamp, glass coverslips containing HEK293 cells were perfused with an extracellular solution (ECS) containing (in mM): 135 NaCl, 4.7 KCl, 1 CaCl2, 1 MgCl2, 10 HEPES and 10 glucose, pH 7.4, with NaOH (310 mOsmol·L^−1). The patch pipette was filled with (in mM): 130 KCl, 1 MgCl2, 5 MgATP, 10 HEPES and 10 BAPTA, pH adjusted to 7.3 with KOH (290 mOsmol·L^−1).
# [2] = target: KCa1.1 (BK) (Homo sapiens, UniProt Q12791); assay: Manual patch clamp in recombinant cell lines, BK; type: cell-based; settings: 10 μM; n = 4
# [3] = target: NaV1.8 (Homo sapiens, UniProt Q9Y5Y9); assay: Sodium channel selectivity, NaV1.8; type: cell-based; settings: read-out: EC50 against NaV1.8
# [4] = target: NaV1.7 (Homo sapiens, UniProt Q15858); assay: Sodium channel selectivity, NaV1.7; type: cell-based; settings: read-out: EC50 against NaV1.7
# [5] = target: T1, hTREK1; assay: 86Rb efflux from CHO–hTREK1 cells; type: cell-based; set-up: expressed in transfected cells; settings: 60 min exposure, fit of logistic equation
# Protocol: CHO–hTREK1 cells were plated on 96‐well, tissue culture‐treated clear plates (92 696) the day before the assay and incubated overnight at 37°C in the presence of 1 μCi·mL^−1 86Rubidium (Rb, NEZ072, Perkin Elmer, Waltham MA, USA). Prior to commencement of the assay, the ^86Rb spiked media were removed from the plate, and cells were washed four times with 100 μL of a 5 mM K^+ ‘Earle's balance salt solution’ (EBSS) buffer containing 135 mM NaCl, 5.4 mM KCl, 1.8 mM CaCl2, 0.8 mM MgCl2,10 mM HEPES and 5 mM glucose, pH 7.4 (adjusted with NaOH). […] Both counting plates were then read on the Wallac Microbeta to measure ^86Rb content [counts per min (CPM)]. % ^86Rb efflux values were calculated as follows: ^86Rbefflux%cell content=CPMin efflux buffer/CPMin efflux buffer+CPMin cell lysate*100.
# Magnitude of ^86Rb efflux stimulation was calculated as follows: %Activation=%efflux test well−efflux in5.4mMK^+EBSS/Efflux in70mMK^+EBSS−efflux in5.4mMK^+EBSS*100.
# Half maximal activation of ^86Rb efflux (EC50) value was calculated using IDBS Xlfit using a four‐parameter logistic equation and expressed as mean ± SEM.
# [6] = target: T2, K2P18.1 (TRESK) (Homo sapiens, UniProt Q7Z418); assay: Manual patch clamp in recombinant cell lines, TRESK; type: cell-based; settings: 10 μM; n = 4
# T2 construct: expressed in transfected cells
# [7] = system: small rat DRG neurons; assay: Current-clamp recordings from small rat DRG neurones in short-term culture; type: cell-based; settings: 1 μM
# Protocol: Acutely dissociated rat DRG cells were obtained according to a previously described protocol (Passmore, 2005). All animal care and experimental procedures complied with guidelines and were approved by the Pfizer Neusentis Institutional Animal Use and Care Committee. Animal studies are reported in compliance with the ARRIVE guidelines (Kilkenny et al., 2010; McGrath and Lilley, 2015).Cells were plated on coated coverslips (poly‐D‐lysine/laminin, BD Biosciences, San Jose, CA, USA) prior to patching on the same day. Cells were perfused with an extracellular solution containing (in mM): 135 NaCl, 4.7 KCl, 1 CaCl2, 1 MgCl2, 10 HEPES and 10 glucose, pH 7.4, with NaOH (310 mOsmol·L^−1). Pipette solution contained (in mM): 130 KCl, 1 MgCl2, 5 MgATP, 10 HEPES and 5 EGTA, pH adjusted to 7.3 with KOH (290 mOsmol·L^−1). For whole‐cell recordings, currents were filtered at 2 kHz and sampled at 5 kHz. Series resistance was compensated for by up to 80%. For current‐clamp recordings, action potential firing and resting membrane potential (RMP) were recorded from small cells ([…]). GI‐530159 was dissolved in 0.3% DMSO as 10 mM stock and applied in the vicinity of cells using a gravity fed perfusion system (MSC‐200, Bio‐Logic SAS, Claix, France).
# [8] = target: Kv11.1 (hERG) (Homo sapiens, UniProt Q12809); settings: 10 μM
# [9] = 15 pA depolarizing current injection, of the 14 cells tested
# Sequence of NaV1.8 (Q9Y5Y9 whole entry): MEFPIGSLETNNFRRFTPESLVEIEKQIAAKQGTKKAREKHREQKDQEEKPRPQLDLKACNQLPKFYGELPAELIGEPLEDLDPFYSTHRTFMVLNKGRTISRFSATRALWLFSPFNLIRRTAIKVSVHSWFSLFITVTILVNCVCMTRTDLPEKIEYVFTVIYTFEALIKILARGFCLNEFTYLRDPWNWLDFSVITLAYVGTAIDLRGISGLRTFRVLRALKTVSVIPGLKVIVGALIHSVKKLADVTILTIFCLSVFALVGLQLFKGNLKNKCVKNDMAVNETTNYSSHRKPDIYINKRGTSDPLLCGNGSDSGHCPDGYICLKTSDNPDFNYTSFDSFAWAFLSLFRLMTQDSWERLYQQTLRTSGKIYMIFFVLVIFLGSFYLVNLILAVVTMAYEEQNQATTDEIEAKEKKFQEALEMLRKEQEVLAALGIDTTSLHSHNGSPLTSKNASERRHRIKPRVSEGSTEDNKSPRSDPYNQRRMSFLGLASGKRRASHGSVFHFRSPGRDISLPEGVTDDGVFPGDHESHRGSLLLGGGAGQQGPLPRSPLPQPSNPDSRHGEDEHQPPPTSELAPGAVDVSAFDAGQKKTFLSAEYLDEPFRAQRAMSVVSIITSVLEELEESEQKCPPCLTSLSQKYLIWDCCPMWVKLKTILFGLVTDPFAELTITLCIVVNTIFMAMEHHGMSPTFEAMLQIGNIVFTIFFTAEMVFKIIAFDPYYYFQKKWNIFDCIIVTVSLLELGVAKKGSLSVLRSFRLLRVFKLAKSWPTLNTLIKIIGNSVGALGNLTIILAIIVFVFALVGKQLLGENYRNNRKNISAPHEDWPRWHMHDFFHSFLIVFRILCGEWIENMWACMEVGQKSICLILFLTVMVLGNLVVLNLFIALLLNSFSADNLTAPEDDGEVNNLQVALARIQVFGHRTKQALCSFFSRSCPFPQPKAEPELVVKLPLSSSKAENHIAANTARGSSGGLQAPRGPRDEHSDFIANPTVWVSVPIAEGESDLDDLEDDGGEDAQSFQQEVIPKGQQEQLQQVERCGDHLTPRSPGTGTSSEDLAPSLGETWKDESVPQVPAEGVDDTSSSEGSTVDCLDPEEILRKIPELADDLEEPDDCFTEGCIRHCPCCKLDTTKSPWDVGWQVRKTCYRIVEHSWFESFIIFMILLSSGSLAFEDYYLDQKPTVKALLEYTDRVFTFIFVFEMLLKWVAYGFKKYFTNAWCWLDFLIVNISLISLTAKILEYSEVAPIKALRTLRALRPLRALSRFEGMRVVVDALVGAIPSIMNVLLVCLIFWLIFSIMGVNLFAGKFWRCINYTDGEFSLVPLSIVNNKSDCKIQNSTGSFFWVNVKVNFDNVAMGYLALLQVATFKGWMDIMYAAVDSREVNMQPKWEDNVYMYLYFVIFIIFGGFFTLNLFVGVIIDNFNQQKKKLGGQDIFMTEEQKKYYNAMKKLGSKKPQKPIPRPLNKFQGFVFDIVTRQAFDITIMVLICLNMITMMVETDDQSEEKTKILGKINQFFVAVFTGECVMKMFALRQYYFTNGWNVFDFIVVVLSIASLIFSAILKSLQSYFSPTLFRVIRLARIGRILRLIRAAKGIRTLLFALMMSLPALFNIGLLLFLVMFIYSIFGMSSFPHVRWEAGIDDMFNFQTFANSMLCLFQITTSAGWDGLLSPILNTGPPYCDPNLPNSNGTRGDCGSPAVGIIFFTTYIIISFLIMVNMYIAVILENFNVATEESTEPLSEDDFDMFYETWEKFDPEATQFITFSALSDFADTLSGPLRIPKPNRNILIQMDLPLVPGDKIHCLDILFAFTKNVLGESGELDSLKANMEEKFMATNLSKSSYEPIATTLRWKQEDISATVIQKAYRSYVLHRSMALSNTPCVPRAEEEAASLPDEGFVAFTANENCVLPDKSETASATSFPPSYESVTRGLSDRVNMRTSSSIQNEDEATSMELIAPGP
# Sequence of NaV1.7 (Q15858 whole entry): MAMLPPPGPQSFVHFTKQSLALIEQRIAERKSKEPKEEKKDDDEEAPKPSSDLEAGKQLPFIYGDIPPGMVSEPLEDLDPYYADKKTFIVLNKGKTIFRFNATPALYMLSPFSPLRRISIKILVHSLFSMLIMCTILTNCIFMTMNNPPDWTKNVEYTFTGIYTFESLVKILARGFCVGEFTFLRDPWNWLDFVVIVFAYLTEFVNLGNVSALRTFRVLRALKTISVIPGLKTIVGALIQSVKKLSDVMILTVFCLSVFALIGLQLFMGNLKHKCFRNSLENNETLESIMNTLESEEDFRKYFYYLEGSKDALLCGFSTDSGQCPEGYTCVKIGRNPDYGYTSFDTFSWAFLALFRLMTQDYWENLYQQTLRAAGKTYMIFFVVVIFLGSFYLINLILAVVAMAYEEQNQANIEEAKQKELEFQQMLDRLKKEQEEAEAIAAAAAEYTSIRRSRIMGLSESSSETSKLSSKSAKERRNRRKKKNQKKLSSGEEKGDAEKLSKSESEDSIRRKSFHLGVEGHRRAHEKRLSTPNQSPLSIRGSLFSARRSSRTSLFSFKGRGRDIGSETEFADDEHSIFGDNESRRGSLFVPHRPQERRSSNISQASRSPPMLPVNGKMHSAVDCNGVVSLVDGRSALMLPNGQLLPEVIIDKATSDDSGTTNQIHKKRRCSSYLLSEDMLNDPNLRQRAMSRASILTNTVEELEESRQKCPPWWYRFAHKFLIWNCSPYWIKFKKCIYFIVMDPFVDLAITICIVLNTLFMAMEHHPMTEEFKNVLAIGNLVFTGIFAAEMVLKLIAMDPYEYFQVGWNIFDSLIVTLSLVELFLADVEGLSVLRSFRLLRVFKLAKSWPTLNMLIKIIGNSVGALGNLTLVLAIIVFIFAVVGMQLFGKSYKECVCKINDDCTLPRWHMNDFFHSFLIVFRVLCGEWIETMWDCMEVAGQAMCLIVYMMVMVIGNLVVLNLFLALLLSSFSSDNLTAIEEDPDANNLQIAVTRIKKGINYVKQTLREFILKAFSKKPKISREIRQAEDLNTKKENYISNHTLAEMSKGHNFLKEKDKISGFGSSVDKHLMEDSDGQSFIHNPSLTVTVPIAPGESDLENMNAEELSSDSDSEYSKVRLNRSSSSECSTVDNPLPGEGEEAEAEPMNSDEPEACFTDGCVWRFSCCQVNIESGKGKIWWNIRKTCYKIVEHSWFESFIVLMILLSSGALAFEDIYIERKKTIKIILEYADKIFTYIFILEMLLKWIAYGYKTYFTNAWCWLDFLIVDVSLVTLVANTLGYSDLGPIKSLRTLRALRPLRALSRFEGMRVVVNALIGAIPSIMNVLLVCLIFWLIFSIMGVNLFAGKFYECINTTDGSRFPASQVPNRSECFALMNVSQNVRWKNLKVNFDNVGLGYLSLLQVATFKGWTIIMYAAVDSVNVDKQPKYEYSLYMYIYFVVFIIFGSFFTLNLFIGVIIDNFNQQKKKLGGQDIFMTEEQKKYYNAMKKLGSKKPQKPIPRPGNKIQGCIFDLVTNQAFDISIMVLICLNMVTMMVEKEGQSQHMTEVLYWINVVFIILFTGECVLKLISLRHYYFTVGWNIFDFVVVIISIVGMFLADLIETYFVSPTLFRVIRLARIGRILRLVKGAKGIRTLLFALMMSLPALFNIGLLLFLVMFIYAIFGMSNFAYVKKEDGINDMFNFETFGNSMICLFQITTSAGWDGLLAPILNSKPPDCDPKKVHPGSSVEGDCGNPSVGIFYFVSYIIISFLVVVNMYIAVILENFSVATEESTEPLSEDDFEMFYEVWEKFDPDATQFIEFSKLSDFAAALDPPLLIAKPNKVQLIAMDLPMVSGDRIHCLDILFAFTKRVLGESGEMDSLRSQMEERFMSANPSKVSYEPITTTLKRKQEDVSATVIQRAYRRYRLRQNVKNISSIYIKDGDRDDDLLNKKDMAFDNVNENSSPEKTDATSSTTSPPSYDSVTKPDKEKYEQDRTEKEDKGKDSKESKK
# Sequence of KCa1.1 (BK) (Q12791 whole entry, species assumed): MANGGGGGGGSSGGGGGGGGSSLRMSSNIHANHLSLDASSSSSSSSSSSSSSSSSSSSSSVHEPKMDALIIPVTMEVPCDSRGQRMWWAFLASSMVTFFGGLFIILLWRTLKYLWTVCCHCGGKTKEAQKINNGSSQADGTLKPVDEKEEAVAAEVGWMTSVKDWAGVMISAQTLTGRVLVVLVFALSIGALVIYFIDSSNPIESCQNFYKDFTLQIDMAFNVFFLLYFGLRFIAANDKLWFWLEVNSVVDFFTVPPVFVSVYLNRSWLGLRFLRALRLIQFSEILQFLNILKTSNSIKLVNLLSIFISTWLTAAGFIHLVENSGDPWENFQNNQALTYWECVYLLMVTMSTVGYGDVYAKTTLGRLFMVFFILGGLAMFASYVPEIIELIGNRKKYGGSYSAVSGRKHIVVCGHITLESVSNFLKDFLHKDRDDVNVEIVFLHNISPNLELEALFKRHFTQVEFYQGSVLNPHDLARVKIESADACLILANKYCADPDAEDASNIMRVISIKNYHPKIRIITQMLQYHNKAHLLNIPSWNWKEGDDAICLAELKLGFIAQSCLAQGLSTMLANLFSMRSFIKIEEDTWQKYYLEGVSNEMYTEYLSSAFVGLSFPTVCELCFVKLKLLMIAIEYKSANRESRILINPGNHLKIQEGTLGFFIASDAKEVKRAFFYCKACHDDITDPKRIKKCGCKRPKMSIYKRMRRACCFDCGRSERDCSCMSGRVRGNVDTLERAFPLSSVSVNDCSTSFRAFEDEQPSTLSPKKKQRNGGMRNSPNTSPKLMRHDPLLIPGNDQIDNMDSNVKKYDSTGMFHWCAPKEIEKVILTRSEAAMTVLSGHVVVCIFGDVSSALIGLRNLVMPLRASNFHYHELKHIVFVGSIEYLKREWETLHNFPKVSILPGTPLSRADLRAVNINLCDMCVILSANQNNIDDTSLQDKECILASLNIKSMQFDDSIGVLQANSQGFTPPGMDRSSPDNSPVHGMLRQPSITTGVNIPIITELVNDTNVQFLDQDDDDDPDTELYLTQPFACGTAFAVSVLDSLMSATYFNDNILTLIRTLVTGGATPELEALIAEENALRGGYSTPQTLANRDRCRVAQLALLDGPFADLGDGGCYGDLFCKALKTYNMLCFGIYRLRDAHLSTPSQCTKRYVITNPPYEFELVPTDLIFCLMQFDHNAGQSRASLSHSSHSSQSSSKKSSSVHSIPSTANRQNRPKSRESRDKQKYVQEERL
structure (smiles),measurement,setting,value
"Nc1ccc(Oc2ccc(C(c3ccc(Oc4ccc(N)cc4)cc3)(C(F)(F)F)C(F)(F)F)cc2)cc1 [GI‐530159, 4,4′‐(hexafluoroisopropylidene)bis(p‐phenyleneoxy)dianiline]",TREK1 current measured at 0 mV,"[1]; 1 μM, HEK293, 116 ± 15 pA in presence of DMSO, n = 6, P < 0.05",4090 ± 878 pA
same,"activated current, TREK1 channels","[1]; 1 μM, n = 6",4.0 ± 0.9 nA
same,reversal potential of compound-enhanced current,"[1]; 1 μM, voltage ramp −100 to +80 mV",~−80 mV
same,enhanced current at maximal activation,"[1]; 30 μM, measured at 0 mV, n = 5",6.6 ± 0.9 nA
same,EC50,"[1]; HEK293, 0.1 to 30 μM, measured at 0 mV, read-out: EC50 for TREK1 current enhancement",890 nM and 900 nM
same,effect on KCa1.1 (BK) current,[2],−3.3 ± 6.7%
same,EC50,[3],> 100000 nM
same,EC50,[4],> 100000 nM
same,EC50,[5]; read-out: EC50 for stimulation of 86Rb efflux,760 ± 100 nM
same,Emax,"[5]; normalized to 70 mM K, read-out: maximum effect on 86Rb efflux, % of that seen with 70 mM K",142 ± 2%
same,effect on K2P18.1 (TRESK) current,[6],−2.0 ± 3.5%
same,share of cells with firing frequency reduced or abolished,[7]; 14 cells tested,57%
same,share of neurons with firing unaltered / unaffected,[7]; 14 cells tested,43%
same,cells with a reduction in firing frequency,[7]; [9],two
same,cells with complete abolition in firing frequency,[7]; [9],six
same,neurons with firing unaltered,[7]; [9],six
same,"resting membrane potential after application, averaged per rat","[7]; n = 7 rats, from −54.0 ± 2.0 mV, P < 0.05",−57.8 ± 1.4 mV
same,resting membrane potential after application,"[7]; n = 14 individual neurons, from −53.6 ± 1.5 mV, P < 0.05",−57.1 ± 1.5 mV
same,effect on Kv11.1 (hERG) current,[8],−7.3 ± 5.1%

# From publication PMC5980259, “GI‐530159, a novel, selective, mechanosensitive two‐pore‐domain potassium (K2P) channel opener, reduces rat dorsal root ganglion neuron excitability” (British Journal of Pharmacology, 2017)
